What was measured:
[1] = Antibiotic plasma level and bioavailability after oral or enteral (duodenal) administration, rats (bioassay with E. coli 1346)
Text: Eine erste in vivo-Testanordnung war wie folgt: Als Versuchsobjekte wurden Menschen und Ratten eingesetzt, die ein β-Lactam-Antibiotikum sowohl oral als auch enteral erhielten. Für die orale Verabreichung wurden die Antibiotika in destilliertem Wasser oder in einem Träger wie Witepsol H15 allein oder zusammen mit CAPMUL MCM 90 und einem Resorptionsverstärker wie Natriumchenodeoxycholat (NaCDC) oder Chenodeoxycholsäure oder Natriumdeoxycholat (NaDC) oder Deoxycholsäure verwendet. In de gleichen Weise wurden die Antibiotika für die enterale Verabreichung hergerichtet und duodenal verabreicht.
Plasmaspiegel der Antibiotika wurden im Blut aus der Armvene des Menschen und der Schwanzvene der Ratte nach Zentrifugieren bestimmt. Die Antibiotika-enthaltenden Blutproben von Ratten wurden durch Bioassay auf einer Nunc-Platte analysiert; E. coli 1346, über Nacht auf einer Antibiotika--Agar Nr. 1-Kultur kultiviert wurde mit Kochsalzlösung gewaschen, wobei eine Suspension mit 90% Durchlässigkeit auf einem Bausch und Lomb-Spectronic 20 (650 nm) hergestellt wurde. 16 ml der erhaltenen Suspension wurden zu 600 ml geschmolzenem Antibiotika-Agar Nr. 1 gegeben, 200 ml des beimpften Agars wurden auf jede Nunc-Platte (243 × 243 ×18 mm) gegeben. Die Agarplatten wurden ausgestanzt, so dass […] Proben in jede Höhlung gegeben werden konnten.
Bei den vorstehend beschriebenen Versuchen wurden Lösungen des Wirkstoffs in destilliertem Wasser bei Raumtemperatur hergestellt und sofern ein Resorptionsverstärker anwesend war, dieser in feinverteilter Form langsam eingeführt, wobei eine feinteilige Suspension erhalten wurde.

Ratten = assay: Insulin effect on blood glucose level after injection into the duodenum of fasted, anaesthetised rats; format: in vivo; conditions: presence of NaCDC in the insulin preparations, summary of Tabelle 2
Text: In dieser Versuchsanordnung wurden Ratten über Nacht fasten gelassen, anästhesiert und der Wirkstoff durch Injektion in das Duodenum verabreicht. Blutproben aus dem Schwanz wurden zu verschiedenen Zeiten entnommen und auf chemisch vorbehandeltem Papier (Chemistrip bg. Boehringer Mannheim Diagnostics) mittels eines Accucheck bg Blutglukosemonitors (Biodynamics, Baltimore) ausgewertet.

[2] = given with Natriumchenodeoxycholat instead of Wasser, summary of Tabelle 1

## CO/N=C(\C(=O)N[C@@H]1C(=O)N2C(C(=O)O)=C(CSc3nc(=O)c(=O)[nH]n3C)CS[C@H]12)c1csc(N)n1 [Ceftriaxon]
[1]; in vivo
  Resorption von Ceftriaxon: synergistisch verstärkt
  Spiegel des Antibiotikums: signifikant höhere Spiegel
  Spiegel von Ceftriaxon: erhöht

## Cn1nnnc1SCC1=C(C(=O)O)N2C(=O)[C@@H](NC(=O)[C@H](O)c3ccccc3)[C@H]2SC1 [Cefamandol]
[1]; [2]
  Spiegel des Antibiotikums: signifikant höhere Spiegel

## CO[C@@]1(NC(=O)C(C(=O)O)c2ccc(O)cc2)C(=O)N2C(C(=O)O)=C(CSc3nnnn3C)CO[C@@H]21 (stereo partly drawn) [Moxalactam]
[1]; in vivo
  Spiegel des Antibiotikums: signifikant höhere Spiegel

## C[C@H](CCC(=O)O)[C@H]1CC[C@H]2[C@@H]3[C@H](O)C[C@@H]4C[C@H](O)CC[C@]4(C)[C@H]3CC[C@]12C [NaCDC, Natriumchenodeoxycholat]
Ratten
  Blutzucker: signifikanten zeitweisen Verminderung des Blutzuckers

## CC1(C)S[C@@H]2[C@H](/N=C/N3CCCCCC3)C(=O)N2[C@H]1C(=O)O [Amdinocillin]
[1]; in vivo
  Spiegel des Antibiotikums: signifikant höhere Spiegel

## NC(=O)OC[C@@H]1[C@H](NC(=O)/C(=N\OCC(=O)O)c2csc(N)n2)C(=O)N1S(=O)(=O)O [Carumonam]
[1]; [2]
  Spiegel des Antibiotikums: signifikant höhere Spiegel

## C[C@@H](O)[C@H]1C(=O)N2C(C(=O)O)=C(SCCN)C[C@H]12 [Thienamycin]
[1]; in vivo
  Spiegel des Antibiotikums: signifikant höhere Spiegel

From patent publication EP0263493A2, “Pharmaceutic preparation to improve the gastro-intestinal resorption” (priority 1986, dated 1988)
